According to patent US11278586B2, “Highly absorbable oral tyrosine formulation” (Kao Corporation, priority 2017, dated 2022):
Where a SMILES comes first, the peptide text is derived from it.

Tests used:
[1] = water at 20° C.; Fust et al. (2001) J. Nutr.; cited from earlier work
[2] = Bioabsorbability of tyrosine after oral administration to mice (plasma amino acids by LC-MS/MS); format: in vivo, C57B6J Mice; conditions: oral 0.55 mmol/kg body weight; for administered dipeptide detected in the plasma: at any time after administration (15-60 min), results not shown
Protocol: C57B6J Mice (CLEA Japan, Inc., 8 weeks old, male) were acclimatized for 1 week, and then the mice were divided into 4 groups with similar body weights (N=4 for each group). Each of amino acids dissolved in water was orally administered to the mice by sonde at the following dose in Table 1. Venous blood was collected from the fundus using a heparin-treated micro hematocrit tube (VITREX) under isoflurane anesthesia before administration and 15, 30, 45, and 60 minutes after administration. These were centrifuged (8,000×g, 10 minutes, 4° C.) to obtain plasma. Thereafter, a 15% by mass of aqueous sulfosalicylic acid solution which was three times amount of the plasma was added thereto, mixed, and centrifuged (8,000×g, 10 minutes, 4° C.) to remove the protein, and the obtained plasma was used as a sample for analysis. Quantification of amino acids in the sample for analysis was performed using LC-MS/MS. Infinity 1290 (Agilent) was used for liquid chromatography, and 3200 QTRAP (AB Sciex) was used for mass spectrometry.
A tyrosine administration group and a tyrosine and glycine (each equimolar amount) mixed administration group were set as controls for the glycyltyrosine administration group. An alanyltyrosine administration group was also set for effect comparison.

Solubility in water = format: physicochemical; conditions: dose of 0.55 mmol/kg body weight, an amount equivalent to 10 times the solubility of tyrosine
Protocol: Glycyltyrosine and alanyltyrosine are known to have high solubility as compared to tyrosine, and the solubility thereof in water at 20° C. is about 75 times and about 36 times that of tyrosine, respectively (Fust et al., (2001) J. Nutr.). […] In spite of this, an excellent action of improving bioabsorbability of tyrosine was confirmed only in the oral administration/ingestion of glycyltyrosine. Therefore, the action is considered not due to the improvement in solubility, but an effect unique to glycyltyrosine.

Row | Structure (SMILES) | solubility in water relative to that of tyrosine [1] | administered dipeptide detected in the plasma [2] | dissolution of the administration sample in water (Solubility in water) | blood tyrosine concentration compared with the tyrosine administration group ([2]; 15 minutes after administration, Dunnett p<0.01, FIG. 1) | maximum blood concentration (Cmax) of tyrosine compared to the tyrosine administration group ([2]; FIG. 2) | blood glycine concentration versus the tyrosine and glycine mixed administration group ([2]; at any time after administration, FIG. 1) | area under the increased blood concentration-time curve (iAUC) of tyrosine compared to the tyrosine administration group ([2]; until 60 minutes after administration, FIG. 2)
1 | C[C@H](N)C(=O)N[C@@H](Cc1ccc(O)cc1)C(=O)O [alanyltyrosine, L-Alanyl-L-tyrosine, reference compound] (H-Ala-Tyr-OH) | about 36 times | not detected | completely dissolved |  |  |  | 
2 | NCC(=O)N[C@@H](Cc1ccc(O)cc1)C(=O)O [glycyltyrosine, Glycyl-L-tyrosine dihydrate] (H-Gly-Tyr-OH) | about 75 times | not detected | completely dissolved | significantly higher | significantly high values | no significant difference | significantly high values
